From ChEMBL document CHEMBL1156516, “Protein kinase C epsilon regulates gamma-aminobutyrate type A receptor sensitivity to ethanol and benzodiazepines through phosphorylation of gamma2 subunits” (J Biol Chem, 2007)
Changes are numbered by the printed parent chain. Calls of active or inactive are those of the source. No cut-off for these calls is given here.

Columns and labels:
[1] = tested on: HEK293; assay: Activity of human GABA alpha-1-beta-2-gamma-2L S327A mutant in HEK293 cells expressing as-PKCepsilon assessed as inhibition of ethanol induced GABA current at 30 uM; format: cell-based
[2] = target: T1, Protein kinase C epsilon type (Homo sapiens, UniProt Q02156); assay: Inhibition of human PKCepsilon
T1 sequence (Q02156 whole entry): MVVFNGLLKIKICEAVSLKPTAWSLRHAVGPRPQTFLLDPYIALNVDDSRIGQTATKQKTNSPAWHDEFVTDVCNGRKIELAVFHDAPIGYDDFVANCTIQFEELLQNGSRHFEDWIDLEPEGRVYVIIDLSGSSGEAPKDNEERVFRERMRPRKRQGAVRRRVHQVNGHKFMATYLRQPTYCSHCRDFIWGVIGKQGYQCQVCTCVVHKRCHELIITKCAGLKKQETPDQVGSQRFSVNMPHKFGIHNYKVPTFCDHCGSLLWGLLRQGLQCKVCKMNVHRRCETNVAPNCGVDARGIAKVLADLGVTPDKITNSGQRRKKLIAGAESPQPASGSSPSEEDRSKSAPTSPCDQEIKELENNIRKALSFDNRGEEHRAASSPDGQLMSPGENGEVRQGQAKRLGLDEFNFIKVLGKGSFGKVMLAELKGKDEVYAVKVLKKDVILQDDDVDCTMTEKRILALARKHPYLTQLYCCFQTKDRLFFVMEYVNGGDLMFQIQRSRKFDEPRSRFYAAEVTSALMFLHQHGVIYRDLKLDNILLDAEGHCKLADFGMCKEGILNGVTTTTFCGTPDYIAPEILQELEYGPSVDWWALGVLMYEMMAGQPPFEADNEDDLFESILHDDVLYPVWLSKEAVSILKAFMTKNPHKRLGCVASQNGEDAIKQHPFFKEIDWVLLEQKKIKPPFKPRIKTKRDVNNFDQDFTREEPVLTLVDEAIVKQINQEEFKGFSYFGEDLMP

[3] = target: Protein kinase C epsilon type (Homo sapiens, UniProt Q02156, M486A); assay: (§1) Inhibition of human PKCepsilon type M486A mutant
[4] = target: Protein kinase C delta type (Homo sapiens, UniProt Q05655); assay: Inhibition of human PKCdelta
[5] = target: Protein kinase C gamma type (Homo sapiens, UniProt P05129); assay: Inhibition of human PKCgamma
[6] = target: T2, Gamma-aminobutyric acid receptor subunit alpha-1 (Homo sapiens) (UniProt P14867); conditions: HEK293
T2 sequence (whole entry): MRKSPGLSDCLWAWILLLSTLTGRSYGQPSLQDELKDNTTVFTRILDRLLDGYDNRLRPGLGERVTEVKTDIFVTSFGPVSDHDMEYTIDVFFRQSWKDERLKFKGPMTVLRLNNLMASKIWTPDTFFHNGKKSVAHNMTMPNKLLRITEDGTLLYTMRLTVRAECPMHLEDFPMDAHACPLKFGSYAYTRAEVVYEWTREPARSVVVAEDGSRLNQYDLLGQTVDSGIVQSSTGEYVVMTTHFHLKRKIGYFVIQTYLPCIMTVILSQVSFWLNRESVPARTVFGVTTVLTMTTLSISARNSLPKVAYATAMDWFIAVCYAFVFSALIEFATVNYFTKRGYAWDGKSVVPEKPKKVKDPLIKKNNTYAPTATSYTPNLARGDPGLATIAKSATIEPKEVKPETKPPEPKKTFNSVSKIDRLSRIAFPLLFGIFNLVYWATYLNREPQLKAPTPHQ

[7] = tested on: HEK293; conditions: Homo sapiens
[8] = target: T3, GABA-A receptor; alpha-1/beta-2/gamma-2 (Homo sapiens) (UniProt P14867+P47870+P18507); conditions: HEK293
[9] = target: T3, GABA-A receptor; alpha-1/beta-2/gamma-2 (Homo sapiens); conditions: HEK293; remark: listed apart in the source
[10] = tested on: HEK293; conditions: Homo sapiens; remark: listed apart in the source
[11] = organism: Mus musculus; assay: Activity of human GABA alpha-1-beta-2-gamma-2S327 receptor in wild type mouse assessed as ethanol induced GABA current
[12] = tested on: HEK293; assay: Activity of human GABA alpha-1-beta-2-gamma-2S327 receptor in HEK293 cells expressing as-PKCepsilon cells assessed as induction of ethanol induced GABA current; format: cell-based
[13] = tested on: Mus musculus; assay: Induction of rotarod ataxia in PKCepsilon deficient mouse at 1 mg/kg; format: functional, organism-based; design: dose 1 mg/kg
[14] = tested on: T4, Protein kinase C epsilon type (Homo sapiens), Q02156 [M486A]; assay: as §1
T4 sequence (whole entry): T1 sequence (Q02156 whole entry) with M486A

Chain of Protein kinase C delta type (Q05655 whole entry): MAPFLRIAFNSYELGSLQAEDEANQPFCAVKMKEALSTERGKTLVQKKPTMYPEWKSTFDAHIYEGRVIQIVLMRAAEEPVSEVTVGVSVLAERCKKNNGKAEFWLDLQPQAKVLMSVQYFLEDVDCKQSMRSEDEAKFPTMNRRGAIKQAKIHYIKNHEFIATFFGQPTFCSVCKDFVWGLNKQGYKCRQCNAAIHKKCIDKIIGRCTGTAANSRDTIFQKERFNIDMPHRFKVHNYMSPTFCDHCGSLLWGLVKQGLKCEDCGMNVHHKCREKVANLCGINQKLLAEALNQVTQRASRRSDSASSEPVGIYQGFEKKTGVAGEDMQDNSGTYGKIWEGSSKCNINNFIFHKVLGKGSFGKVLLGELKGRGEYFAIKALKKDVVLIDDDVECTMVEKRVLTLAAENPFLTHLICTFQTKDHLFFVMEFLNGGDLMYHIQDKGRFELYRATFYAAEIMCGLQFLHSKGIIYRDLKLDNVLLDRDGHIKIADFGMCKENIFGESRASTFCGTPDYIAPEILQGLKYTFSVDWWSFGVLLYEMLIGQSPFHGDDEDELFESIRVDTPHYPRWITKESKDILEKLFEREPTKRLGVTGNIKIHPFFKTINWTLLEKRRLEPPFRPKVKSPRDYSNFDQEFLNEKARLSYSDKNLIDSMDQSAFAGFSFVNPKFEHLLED
Chain of Protein kinase C epsilon type (Homo sapiens, UniProt Q02156, M486A) (Q02156 whole entry M486A): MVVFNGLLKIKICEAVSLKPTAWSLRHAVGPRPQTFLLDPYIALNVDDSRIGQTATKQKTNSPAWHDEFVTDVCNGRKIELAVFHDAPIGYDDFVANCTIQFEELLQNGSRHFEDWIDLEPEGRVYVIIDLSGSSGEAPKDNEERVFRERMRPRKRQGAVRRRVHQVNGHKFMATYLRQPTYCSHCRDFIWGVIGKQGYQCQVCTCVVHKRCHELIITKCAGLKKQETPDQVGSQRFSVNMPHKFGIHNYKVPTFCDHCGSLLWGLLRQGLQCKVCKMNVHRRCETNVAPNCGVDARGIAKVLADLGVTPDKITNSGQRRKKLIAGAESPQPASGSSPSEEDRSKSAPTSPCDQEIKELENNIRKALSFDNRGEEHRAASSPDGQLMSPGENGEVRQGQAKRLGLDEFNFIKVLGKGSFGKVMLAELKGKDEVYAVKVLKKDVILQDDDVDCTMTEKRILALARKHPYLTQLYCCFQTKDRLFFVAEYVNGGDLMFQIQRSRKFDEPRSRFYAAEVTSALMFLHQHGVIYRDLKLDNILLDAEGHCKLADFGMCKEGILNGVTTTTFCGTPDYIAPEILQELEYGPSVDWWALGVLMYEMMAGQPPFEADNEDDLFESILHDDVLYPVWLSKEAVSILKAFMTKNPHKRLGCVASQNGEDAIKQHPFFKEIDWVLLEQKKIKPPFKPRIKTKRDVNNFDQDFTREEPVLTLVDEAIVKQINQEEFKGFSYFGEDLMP

Compound: CN1CCc2cc3c(cc2[C@H]1[C@@H]1OC(=O)c2c1ccc1c2OCO1)OCO3
- Activity [1]: Active

Compound: CN(C)CCCn1cc(C2=C(c3c[nH]c4ccccc34)C(=O)NC2=O)c2ccccc21 [GF-109203]
- IC50 [2]: 6 nM
- IC50 [3]: 12 nM
- IC50 [4]: 32 nM
- IC50 [5]: 30 nM

Compound: CN1C(=O)CN=C(c2ccccc2F)c2cc([N+](=O)[O-])ccc21
- logEC50 [6]: 1.99
- logEC50 [7]: 1.59
- logEC50 [8]: 1.46
- logEC50 [9]: 1.46
- logEC50 [10]: 1.8

Compound: CN1C(=O)CN=C(c2ccccc2)c2cc(Cl)ccc21
- Activity [11]: 75%

Compound: CC(C)(C)n1nc(-c2cccc3ccccc23)c2c(N)ncnc21
- IC50 [2]: > 100000 nM
- IC50 [3]: 21 nM
- IC50 [4]: > 100000 nM
- IC50 [5]: > 100000 nM
- Activity [12]: Active

Compound: Cc1ccc(-c2nc3ccc(C)cn3c2CC(=O)N(C)C)cc1
- Activity [13]: Active
- Activity [14]: Active
